# Measurements: US10537565B2, “Solid forms of N-[2,4-bis(1,1-dimethylethyl)-5-hydroxyphenyl]-1,4-dihydro-4-oxoquinoline-3-carboxamide” (Vertex Pharmaceuticals Incorporated, priority 2005, dated 2020)
# Legend:
# [1] = Bioavailability (PK) of solid state forms of Compound 1 in rat, oral dosing compared to IV solution; details: in vivo
# Experimental: Bioavailability of crystalline Form B, 85% amorphous Compound 1 and HPMCAS solid dispersion of Compound 1 were evaluated in rat, the results of which are provided in Table 4 below. These forms of the compound were dosed in an oral suspension with a vehicle containing 0.5% methyl cellulose/0.5% SLS/99% water. Bioavailability of various solid forms was evaluated as compared to a multicomponent IV solution of Compound 1. Bioavailability of crystalline […] was 3-6%, compared to 61-95% for amorphous material and 109-111% for solid dispersion.
# Solubility in FaSSIF = format: physicochemical
bioavailability ([1]; po),"% F ([1]; po, 50 mg/kg) [%]","AUC ([1]; po, 50 mg/kg) [µg·h/mL]","Tmax ([1]; po, 50 mg/kg) [h]","% F ([1]; po, 200 mg/kg) [%]","AUC ([1]; po, 200 mg/kg) [µg·h/mL]","Tmax ([1]; po, 200 mg/kg) [h]",solubility (Solubility in FaSSIF; listed as 85% amorphous material) [µg/mL],"bioavailability ([1]; 50 mg/kg, % F) [%]","bioavailability ([1]; 200 mg/kg, % F) [%]","Tmax ([1]; po, 50 mg/kg, Tmax) [h]",solubility (Solubility in FaSSIF; listed as crystalline polymorph B) [µg/mL],Structure (SMILES)
61-95%,95.0,135.5,6.0,61.0,371.9,6.0,67.4,,,,,"CC(C)(C)c1cc(C(C)(C)C)c(NC(=O)c2c[nH]c3ccccc3c2=O)cc1O [85% Amorphous, N-[2,4-bis(1,1-dimethylethyl)-5-hydroxyphenyl]-1,4-dihydro-4-oxoquinoline-3-carboxamide]"
,5.5,,4.0,3.1,,,,74,67,5.5,1.0,"CC(C)(C)c1cc(C(C)(C)C)c(NC(=O)c2c[nH]c3ccccc3c2=O)cc1O [Crystalline, N-[2,4-bis(1,1-dimethylethyl)-5-hydroxyphenyl]-1,4-dihydro-4-oxoquinoline-3-carboxamide]"
